Laboratory results: ChEMBL document CHEMBL5291721, “A preclinical secondary pharmacology resource illuminates target-adverse drug reaction associations of marketed drugs” (Nat Commun, 2023)

Experiments:
[1] = target: Gamma-aminobutyric acid receptor subunit alpha-1/alpha-2/beta-2/gamma-2 (Homo sapiens, UniProt P14867+P18507+P47869+P47870); assay type: protein-complex assay
[2] = target: Vascular endothelial growth factor receptor 2 (Homo sapiens, UniProt P35968); assay type: functional
[3] = target: T1, Alpha-2A adrenergic receptor (Homo sapiens, UniProt P08913); assay type: functional, cell-based
T1 sequence (P08913 whole entry): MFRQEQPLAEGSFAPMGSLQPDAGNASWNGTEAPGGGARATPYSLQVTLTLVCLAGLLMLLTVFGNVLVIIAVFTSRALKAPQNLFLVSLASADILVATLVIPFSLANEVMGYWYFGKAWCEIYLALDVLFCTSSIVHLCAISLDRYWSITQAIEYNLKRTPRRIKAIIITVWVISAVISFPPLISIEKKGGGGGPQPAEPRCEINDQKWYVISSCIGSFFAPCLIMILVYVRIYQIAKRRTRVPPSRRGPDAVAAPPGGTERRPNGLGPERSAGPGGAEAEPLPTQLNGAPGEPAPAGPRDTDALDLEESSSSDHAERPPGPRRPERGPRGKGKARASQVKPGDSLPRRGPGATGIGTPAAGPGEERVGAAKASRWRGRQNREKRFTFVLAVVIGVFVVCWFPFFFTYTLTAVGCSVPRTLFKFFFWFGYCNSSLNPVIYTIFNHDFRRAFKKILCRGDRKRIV

[4] = target: T1, Alpha-2A adrenergic receptor; assay type: functional, cell-based; remark: listed apart in the source
[5] = target: T2, Gamma-aminobutyric acid receptor subunit alpha-1 (Rattus norvegicus, UniProt P62813)
[6] = target: T3, Type-1 angiotensin II receptor (Homo sapiens, UniProt P30556)
T3 sequence (P30556 whole entry): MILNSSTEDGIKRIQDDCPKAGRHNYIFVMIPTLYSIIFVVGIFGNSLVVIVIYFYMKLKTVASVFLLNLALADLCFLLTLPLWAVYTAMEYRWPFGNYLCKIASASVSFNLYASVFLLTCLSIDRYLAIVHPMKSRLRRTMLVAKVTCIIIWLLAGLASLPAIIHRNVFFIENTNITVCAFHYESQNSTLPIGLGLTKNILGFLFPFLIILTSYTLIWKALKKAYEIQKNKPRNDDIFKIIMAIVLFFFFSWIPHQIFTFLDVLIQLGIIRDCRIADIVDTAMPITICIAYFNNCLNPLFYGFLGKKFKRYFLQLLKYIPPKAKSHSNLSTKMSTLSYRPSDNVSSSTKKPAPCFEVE

D(1A) dopamine receptor = D(1A) dopamine receptor (Homo sapiens, UniProt P21728); assay type: functional, cell-based
Thromboxane A2 receptor = target: T4, Thromboxane A2 receptor (Homo sapiens, UniProt P21731)
T4 sequence (P21731 whole entry): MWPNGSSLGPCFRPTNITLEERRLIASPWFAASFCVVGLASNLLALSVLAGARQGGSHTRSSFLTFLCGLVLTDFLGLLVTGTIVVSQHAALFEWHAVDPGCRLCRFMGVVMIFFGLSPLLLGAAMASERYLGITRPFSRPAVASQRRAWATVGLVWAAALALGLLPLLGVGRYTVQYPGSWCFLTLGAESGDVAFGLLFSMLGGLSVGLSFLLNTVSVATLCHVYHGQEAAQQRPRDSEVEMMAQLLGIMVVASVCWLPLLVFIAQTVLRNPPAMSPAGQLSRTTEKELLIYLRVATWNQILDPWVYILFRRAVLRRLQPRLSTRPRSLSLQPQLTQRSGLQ

[7] = target: T5, 5-hydroxytryptamine receptor 2B (Homo sapiens, UniProt P41595); assay type: functional, cell-based
[8] = target: T6, Neuropeptide Y receptor type 1 (Homo sapiens, UniProt P25929)
T6 sequence (P25929 whole entry): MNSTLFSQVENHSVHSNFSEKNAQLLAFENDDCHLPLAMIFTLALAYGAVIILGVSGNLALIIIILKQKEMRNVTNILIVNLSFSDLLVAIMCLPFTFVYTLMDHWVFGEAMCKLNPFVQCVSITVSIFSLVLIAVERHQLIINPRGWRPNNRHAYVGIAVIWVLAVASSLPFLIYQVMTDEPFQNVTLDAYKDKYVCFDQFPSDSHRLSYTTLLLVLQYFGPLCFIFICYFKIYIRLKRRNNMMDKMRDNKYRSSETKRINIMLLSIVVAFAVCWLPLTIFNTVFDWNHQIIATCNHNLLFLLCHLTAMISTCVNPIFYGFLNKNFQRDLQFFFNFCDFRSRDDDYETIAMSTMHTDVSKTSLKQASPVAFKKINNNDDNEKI

[9] = target: T7, 5-hydroxytryptamine receptor 3A (Homo sapiens, UniProt P46098); assay type: functional
T7 sequence (P46098 whole entry): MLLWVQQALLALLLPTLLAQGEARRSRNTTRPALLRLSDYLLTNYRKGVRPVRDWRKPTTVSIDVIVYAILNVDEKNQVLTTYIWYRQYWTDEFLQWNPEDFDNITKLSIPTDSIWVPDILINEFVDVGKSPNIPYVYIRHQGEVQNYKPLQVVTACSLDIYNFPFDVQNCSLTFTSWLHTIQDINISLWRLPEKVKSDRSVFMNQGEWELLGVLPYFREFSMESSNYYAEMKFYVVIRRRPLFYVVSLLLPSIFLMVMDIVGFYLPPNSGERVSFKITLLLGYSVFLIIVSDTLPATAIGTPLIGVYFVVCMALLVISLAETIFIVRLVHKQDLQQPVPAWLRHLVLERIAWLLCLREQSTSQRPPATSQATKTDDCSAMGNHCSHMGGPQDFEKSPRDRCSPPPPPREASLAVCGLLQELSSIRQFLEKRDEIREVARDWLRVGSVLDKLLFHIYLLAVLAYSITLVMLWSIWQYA

[10] = target: T5, 5-hydroxytryptamine receptor 2B; assay type: functional, cell-based; remark: listed apart in the source
[11] = target: T2, Gamma-aminobutyric acid receptor subunit alpha-1; remark: listed apart in the source
Adenosine receptor A2a = Adenosine receptor A2a (Homo sapiens, UniProt P29274)
Also: assay procedure not described here.

Sequence of Vascular endothelial growth factor receptor 2 (P35968 whole entry): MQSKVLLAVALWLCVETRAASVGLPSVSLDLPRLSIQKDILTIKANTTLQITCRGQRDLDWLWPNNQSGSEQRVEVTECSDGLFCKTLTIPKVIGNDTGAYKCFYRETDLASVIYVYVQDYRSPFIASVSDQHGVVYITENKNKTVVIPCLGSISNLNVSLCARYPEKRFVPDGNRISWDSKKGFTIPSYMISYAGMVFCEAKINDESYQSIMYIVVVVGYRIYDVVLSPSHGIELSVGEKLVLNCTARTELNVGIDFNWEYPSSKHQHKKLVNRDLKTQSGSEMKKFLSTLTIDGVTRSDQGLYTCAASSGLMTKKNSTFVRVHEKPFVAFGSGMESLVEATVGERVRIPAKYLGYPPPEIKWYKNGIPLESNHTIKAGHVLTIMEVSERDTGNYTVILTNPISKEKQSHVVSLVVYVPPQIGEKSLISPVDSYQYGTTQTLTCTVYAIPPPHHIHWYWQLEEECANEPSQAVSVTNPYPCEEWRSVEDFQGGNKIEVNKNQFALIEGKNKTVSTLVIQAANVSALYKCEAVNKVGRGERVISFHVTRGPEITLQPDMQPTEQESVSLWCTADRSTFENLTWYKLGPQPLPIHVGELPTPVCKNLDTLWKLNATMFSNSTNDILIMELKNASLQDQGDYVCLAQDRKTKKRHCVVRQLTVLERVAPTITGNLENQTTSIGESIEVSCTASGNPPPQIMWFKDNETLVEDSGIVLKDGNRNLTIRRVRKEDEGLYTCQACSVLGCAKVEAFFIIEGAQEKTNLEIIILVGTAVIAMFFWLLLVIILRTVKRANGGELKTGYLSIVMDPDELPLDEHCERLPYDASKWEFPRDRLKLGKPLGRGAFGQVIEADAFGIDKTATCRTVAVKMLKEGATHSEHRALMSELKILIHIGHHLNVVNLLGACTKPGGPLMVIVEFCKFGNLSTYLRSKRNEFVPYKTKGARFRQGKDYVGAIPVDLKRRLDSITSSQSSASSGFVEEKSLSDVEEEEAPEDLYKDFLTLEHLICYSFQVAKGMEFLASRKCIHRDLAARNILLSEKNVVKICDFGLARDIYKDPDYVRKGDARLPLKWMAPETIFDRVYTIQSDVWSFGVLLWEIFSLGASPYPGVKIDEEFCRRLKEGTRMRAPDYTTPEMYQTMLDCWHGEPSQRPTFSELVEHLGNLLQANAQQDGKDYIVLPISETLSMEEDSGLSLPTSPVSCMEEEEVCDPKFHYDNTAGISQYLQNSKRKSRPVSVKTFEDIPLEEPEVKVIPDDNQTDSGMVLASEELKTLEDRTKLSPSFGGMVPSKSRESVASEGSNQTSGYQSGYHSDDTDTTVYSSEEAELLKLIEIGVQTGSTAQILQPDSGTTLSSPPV
T2 sequence (P62813 whole entry): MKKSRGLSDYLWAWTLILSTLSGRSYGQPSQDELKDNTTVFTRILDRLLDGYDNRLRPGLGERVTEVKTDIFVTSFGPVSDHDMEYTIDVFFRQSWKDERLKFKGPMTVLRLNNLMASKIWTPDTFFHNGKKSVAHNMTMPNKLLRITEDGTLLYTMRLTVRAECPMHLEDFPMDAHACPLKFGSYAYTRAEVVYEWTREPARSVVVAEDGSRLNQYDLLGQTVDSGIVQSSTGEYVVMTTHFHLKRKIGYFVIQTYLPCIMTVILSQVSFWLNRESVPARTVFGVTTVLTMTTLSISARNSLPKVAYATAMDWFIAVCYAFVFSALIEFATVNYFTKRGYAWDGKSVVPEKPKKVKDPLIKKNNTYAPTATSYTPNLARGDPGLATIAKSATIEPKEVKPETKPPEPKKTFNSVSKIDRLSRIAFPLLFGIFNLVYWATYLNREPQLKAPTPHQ
Sequence of Gamma-aminobutyric acid receptor subunit alpha-1/alpha-2/beta-2/gamma-2 (P14867 whole entry): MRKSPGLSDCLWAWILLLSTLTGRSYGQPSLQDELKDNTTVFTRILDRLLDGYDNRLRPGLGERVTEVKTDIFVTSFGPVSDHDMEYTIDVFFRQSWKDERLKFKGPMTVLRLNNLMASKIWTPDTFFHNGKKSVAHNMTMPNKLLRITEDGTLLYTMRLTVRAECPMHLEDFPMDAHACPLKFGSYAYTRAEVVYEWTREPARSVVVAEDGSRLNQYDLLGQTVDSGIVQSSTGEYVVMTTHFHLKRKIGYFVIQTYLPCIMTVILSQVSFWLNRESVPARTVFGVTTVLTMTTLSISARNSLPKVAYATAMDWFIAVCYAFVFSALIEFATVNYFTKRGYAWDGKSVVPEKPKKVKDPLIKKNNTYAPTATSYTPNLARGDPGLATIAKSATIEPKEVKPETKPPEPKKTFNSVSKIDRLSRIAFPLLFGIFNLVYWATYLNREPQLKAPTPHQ
Sequence of Gamma-aminobutyric acid receptor subunit alpha-1/alpha-2/beta-2/gamma-2 (P47870 whole entry): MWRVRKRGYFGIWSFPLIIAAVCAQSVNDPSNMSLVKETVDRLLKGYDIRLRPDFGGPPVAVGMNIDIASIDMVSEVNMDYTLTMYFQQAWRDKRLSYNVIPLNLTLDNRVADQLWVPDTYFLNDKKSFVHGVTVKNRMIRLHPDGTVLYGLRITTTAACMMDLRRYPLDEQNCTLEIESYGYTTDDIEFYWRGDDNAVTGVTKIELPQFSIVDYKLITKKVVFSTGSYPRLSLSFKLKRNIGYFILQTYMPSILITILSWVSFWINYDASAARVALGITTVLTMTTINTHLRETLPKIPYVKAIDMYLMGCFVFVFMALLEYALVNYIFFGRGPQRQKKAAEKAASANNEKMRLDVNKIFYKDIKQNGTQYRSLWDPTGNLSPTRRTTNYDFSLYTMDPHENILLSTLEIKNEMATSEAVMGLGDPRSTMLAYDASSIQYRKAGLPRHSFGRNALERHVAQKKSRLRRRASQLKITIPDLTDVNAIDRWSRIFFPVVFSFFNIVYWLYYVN
Sequence of Gamma-aminobutyric acid receptor subunit alpha-1/alpha-2/beta-2/gamma-2 (P18507 whole entry): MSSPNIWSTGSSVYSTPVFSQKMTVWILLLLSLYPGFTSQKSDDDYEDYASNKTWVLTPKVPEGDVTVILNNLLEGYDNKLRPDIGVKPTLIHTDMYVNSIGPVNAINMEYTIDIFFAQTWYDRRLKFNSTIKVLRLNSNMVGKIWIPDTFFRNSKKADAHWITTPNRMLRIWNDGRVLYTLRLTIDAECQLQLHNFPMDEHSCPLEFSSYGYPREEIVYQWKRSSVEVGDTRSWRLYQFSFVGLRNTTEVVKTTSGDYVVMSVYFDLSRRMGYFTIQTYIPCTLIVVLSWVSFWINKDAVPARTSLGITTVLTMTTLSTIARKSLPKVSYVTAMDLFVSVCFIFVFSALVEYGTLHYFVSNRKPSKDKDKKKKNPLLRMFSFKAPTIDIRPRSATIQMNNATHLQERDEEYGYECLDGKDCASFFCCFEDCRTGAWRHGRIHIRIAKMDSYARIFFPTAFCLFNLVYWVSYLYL
Sequence of Gamma-aminobutyric acid receptor subunit alpha-1/alpha-2/beta-2/gamma-2 (P47869 whole entry): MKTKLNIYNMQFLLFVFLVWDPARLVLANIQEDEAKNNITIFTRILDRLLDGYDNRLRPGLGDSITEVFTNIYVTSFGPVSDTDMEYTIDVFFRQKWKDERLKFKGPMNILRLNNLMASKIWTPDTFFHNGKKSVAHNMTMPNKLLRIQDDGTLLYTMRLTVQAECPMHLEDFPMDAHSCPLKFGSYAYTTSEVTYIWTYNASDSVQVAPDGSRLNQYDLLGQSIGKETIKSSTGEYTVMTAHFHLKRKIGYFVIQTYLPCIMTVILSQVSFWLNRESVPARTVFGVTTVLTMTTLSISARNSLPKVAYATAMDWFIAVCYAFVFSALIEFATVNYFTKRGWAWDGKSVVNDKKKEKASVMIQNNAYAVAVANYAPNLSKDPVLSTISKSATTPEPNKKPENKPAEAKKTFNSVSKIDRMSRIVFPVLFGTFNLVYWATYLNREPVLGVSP
Sequence of Adenosine receptor A2a (P29274 whole entry): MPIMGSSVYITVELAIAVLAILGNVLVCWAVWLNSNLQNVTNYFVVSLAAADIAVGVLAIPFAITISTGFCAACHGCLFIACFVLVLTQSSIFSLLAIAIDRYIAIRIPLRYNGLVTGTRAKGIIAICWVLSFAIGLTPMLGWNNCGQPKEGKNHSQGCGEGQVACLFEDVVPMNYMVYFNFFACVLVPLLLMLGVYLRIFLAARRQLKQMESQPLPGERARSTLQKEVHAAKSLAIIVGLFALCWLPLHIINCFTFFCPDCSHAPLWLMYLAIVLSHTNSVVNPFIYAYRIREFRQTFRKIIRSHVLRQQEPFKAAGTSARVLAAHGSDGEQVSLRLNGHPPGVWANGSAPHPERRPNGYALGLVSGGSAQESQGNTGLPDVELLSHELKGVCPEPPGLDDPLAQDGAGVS
T5 sequence (P41595 whole entry): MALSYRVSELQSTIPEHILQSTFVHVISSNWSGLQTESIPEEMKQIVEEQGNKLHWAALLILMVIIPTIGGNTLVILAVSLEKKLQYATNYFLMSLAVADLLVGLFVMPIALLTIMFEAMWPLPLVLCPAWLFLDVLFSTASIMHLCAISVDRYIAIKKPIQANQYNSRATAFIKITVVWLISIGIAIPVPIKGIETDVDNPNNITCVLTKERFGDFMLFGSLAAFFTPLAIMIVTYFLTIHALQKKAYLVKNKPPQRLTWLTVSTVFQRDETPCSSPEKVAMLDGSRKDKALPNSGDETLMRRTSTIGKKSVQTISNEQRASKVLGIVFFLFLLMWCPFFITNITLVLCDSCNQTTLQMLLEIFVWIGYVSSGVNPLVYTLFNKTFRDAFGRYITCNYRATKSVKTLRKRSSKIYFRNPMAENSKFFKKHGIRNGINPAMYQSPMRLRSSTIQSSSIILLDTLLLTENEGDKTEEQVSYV

Structure (SMILES)	AC50 [1]	AC50 [2]	AC50 [5]	other results
CC(c1ccc(Cl)c(Cl)c1)N1N=C(N)CC1=O (stereo unspecified) [MUZOLIMINE]	> 30 µM	> 30 µM	–	–
CCN(CC)CCOC(=O)C(Cc1cccc2ccccc12)CC1CCCO1 (stereo unspecified) [NAFRONYL]	> 30 µM	> 30 µM	–	–
c1ccc2c(CC3=NCCN3)cccc2c1 [NAPHAZOLINE]	–	> 30 µM	> 30 µM	AC50 [3]: 140 nM; AC50 [4]: 43 nM
N[C@@H](Cc1c[nH]c2ccc(O)cc12)C(=O)O [OXITRIPTAN]	> 30 µM	> 30 µM	–	–
CNC(=O)Oc1ccc2c(c1)[C@]1(C)CCN(C)[C@@H]1N2C [PHYSOSTIGMINE]	> 30 µM	> 30 µM	–	AC50 [3]: > 30000 nM; AC50 [6]: > 30 µM; AC50 (D(1A) dopamine receptor): > 30 µM; AC50 (Thromboxane A2 receptor): > 30 µM; AC50 [4]: > 30000 nM; AC50 [7]: > 30 µM; AC50 [8]: > 30 µM; AC50 [9]: > 30 µM; AC50 [10]: > 30 µM; AC50 [11]: > 30 µM; AC50 (Adenosine receptor A2a): > 30 µM
C1CNCCN1 [PIPERAZINE]	> 30 µM	23.3 µM	> 30 µM	–
c1cc(CN2CCCNCCNCCCNCC2)ccc1CN1CCCNCCNCCCNCC1 [PLERIXAFOR]	> 30 µM	> 30 µM	–	–
CO[C@H]1/C=C/O[C@@]2(C)Oc3c(C)c(O)c4c(O)c(cc(O)c4c3C2=O)NC(=O)/C(C)=C\C=C\[C@H](C)[C@H](O)[C@@H](C)[C@@H](O)[C@@H](C)[C@H](OC(C)=O)[C@@H]1C [RIFAMYCIN]	> 30 µM	> 30 µM	–	–
CCCC(=O)O[C@H]1[C@H](C)O[C@@H](O[C@H]2[C@H](N(C)C)[C@@H](O)[C@H](O[C@H]3[C@@H](CC=O)C[C@@H](C)[C@@H](O)/C=C/C=C/C[C@@H](C)OC(=O)C[C@@H](O)[C@@H]3OC)O[C@@H]2C)C[C@@]1(C)OC(=O)CC [ROKITAMYCIN]	> 30 µM	> 30 µM	–	–
CCCCCCCCCCCCCCCCCC(=O)NCCCC[C@H](NC(=O)CC[C@@H](NC(=O)[C@H](C)NC(=O)[C@@H](C)O[C@H]1[C@H](O)[C@@H](CO)OC(O)[C@@H]1NC(C)=O)C(N)=O)C(=O)O (stereo partly specified) [ROMURTIDE]	–	> 30 µM	> 30 µM	–
O=C(Oc1ccccc1C(=O)O)c1ccccc1O [SALSALATE]	> 30 µM	> 30 µM	> 30 µM	–
COc1cc([C@@H]2c3cc4c(cc3[C@@H](O[C@@H]3O[C@@H]5CO[C@@H](c6cccs6)O[C@H]5[C@H](O)[C@H]3O)[C@H]3COC(=O)[C@H]23)OCO4)cc(OC)c1O [TENIPOSIDE]	> 30 µM	> 30 µM	–	–
c1ccc2[nH]c(-c3cscn3)nc2c1 [THIABENDAZOLE]	> 30 µM	> 30 µM	–	–
CCSc1ccc2c(c1)N(CCCN1CCN(C)CC1)c1ccccc1S2 [THIETHYLPERAZINE]	> 30 µM	> 30 µM	–	AC50 (Adenosine receptor A2a): > 30 µM
C[C@@H]1C[C@H]2[C@@H]3CCC4=CC(=O)C=C[C@]4(C)C3=CC[C@]2(C)[C@H]1C(=O)CN1CCN(c2cc(N3CCCC3)nc(N3CCCC3)n2)CC1 [TIRILAZAD]	–	> 30 µM	> 30 µM	–
